Assay results as given in US4981861A, “Tricyclic imidazole derivatives” (Hoffmann-La Roche Inc., priority 1984, dated 1991).

What was measured:
[1] = test system: lesions of the stomach; experiment: anti-ulcer activity (protection from indomethacin-induced lesions of the stomach, oral); type: in vivo, male rats; settings: Rattus norvegicus, rats, p.o. 1 hour before and 2 hours after 20 mg/kg indomethacin p.o., dosage protecting 50% of the animals, read-out: Anti-ulcer ED 50
Method: The experimental procedure described hereinafter was used to determine the anti-ulcer activity:
Groups each comprising 8 male rats with a body weight of 130-150 g are used for each dosage of a test substance. Before the beginning of the experiment the animals receive no food for 24 hours, but receive water ad libitum. Various dosages of the substances to be tested (suspended in 0.5% tragacanth) or the vehicle alone (controls) are administered twice orally, namely 1 hour before and 2 hours after the oral administration of 20 mg/kg of indomethacin. In the control animals this dosage of indomethacin leads to lesions of the stomach within 5 hours. The animals are sacrificed 6 hours after the first administration of the substance under investigation (or of the vehicle alone). The rats which remain protected from the occurrence of macroscopically visible lesions to the mucous membrane of the stomach are counted. The ED is that dosage of a test substance at which 50% of the animals are protected from the occurence of such lesions.

[2] = acute toxicity (single oral administration to mice); settings: mouse, in vivo, read-out: Toxicity LD 50
Excerpt: In the following Table there are given for a series of compounds of formula I the results of the testing with respect to their anti-ulcer activity and to their gastric secretion-inhibiting activity. Moreover, this Table contains data concerning the acute toxicity (LD50 in the case of single oral administration to mice).

[3] = test system: gastric acid secretion; experiment: gastric acid secretion-inhibiting activity (4-methylhistamine-stimulated, Heidenhain pouch, oral); type: in vivo; settings: Canis lupus familiaris, conscious beagle hounds, p.o., 50% inhibition of gastric acid production caused by i.v. 4-methylhistamine, read-out: Gastric acid secretion-inhibition ED 50
Method: The experimental procedure described hereinafter was used to determine the gastric acid secretion-inhibiting activity:
A part of the stomach fundus of female and male beagle hounds is separated from the remainder of the stomach in the form a pouch of the Heidenhain type (modification of the method described by Rudick et al. in J. Surgical Research 7, 383-398 (1967)). In the pouch there is fitted a steel cannula which is conducted externally through the abdominal wall. Before each experiment the animals receive no food for 18 hours, but receive water ad libitum. They are conscious and standing during the experiment and their gastric acid secretion is stimulated by the intravenous infusion of 4-methylhistamine, a selective agonist of the histamine H2 -receptors. The gastric acid production is determined in 15 minute fractions of the stomach pouch juice. As soon as the gastric acid production has a constant value, the substances to be tested are administered orally as a dry powder filled into gelatine capsules. The ED50 is that dosage of a test substance which brings about a 50% inhibition of the gastric acid production caused by 4-methylhistamine in the treated animals in comparison to the controls.

Row | SMILES | ED50 [1] | LD50 [2] | ED50 [3]
1 | COc1c(C)cnc(CSc2nc3cc4c(cc3[nH]2)C(C)(C)C(=O)C4(C)C)c1C [A, 5,7-dihydro-2-[[(4-methoxy-3,5-dimethyl-2-pyridyl)-methyl]thio]-5,5,7,7-tetramethylindeno[5,6-d]imidazol-6(lH)-one] | 2 mg/kg | > 5000 mg/kg | 4.88 mg/kg
2 | COc1c(C)cnc(C[S+]([O-])c2nc3cc4c(cc3[nH]2)C(C)(C)C(=O)C4(C)C)c1C (stereo not drawn) [B, 5,7-dihydro-2-[[(4-methoxy-3,5-dimethyl-2-pyridyl)-methyl]sulfinyl]-5,5,7,7-tetramethylindeno[5,6-d]imidazol-6(lH)-one] | 2.3 mg/kg | > 5000 mg/kg | 5.44 mg/kg
3 | COc1ccnc(CSc2nc3cc4c(cc3[nH]2)C(C)(C)C(=O)C4(C)C)c1C [C, 5,7-dihydro-2-[[(4-methoxy-3-methyl-2-pyridyl)methyl]thio]-5,5,7,7-tetramethylindeno[5,6-d]imidazol-6(lH)-one] | 1.2 mg/kg | > 5000 mg/kg | 2.56 mg/kg
4 | COc1ccnc(C[S+]([O-])c2nc3cc4c(cc3[nH]2)C(C)(C)C(=O)C4(C)C)c1C (stereo not drawn) [D, 5,7-dihydro-2-[[(4-methoxy-3-methyl-2-pyridyl)-methyl]sulfinyl]-5,5,7,7-tetramethylindeno[5,6-d]imidazol-6(lH)-one] | 1.3 mg/kg | > 5000 mg/kg | 3.59 mg/kg
5 | COc1ccnc(C[S+]([O-])c2nc3cc4c(cc3[nH]2)OCO4)c1C (stereo not drawn) [E, 6-[[(4-methoxy-3-methyl-2-pyridyl)methyl]sulfinyl]-5H-1,3-dioxolo[4,5-f]benzimidazole] | 4 mg/kg | > 5000 mg/kg | 1.79 mg/kg
6 | COc1c(C)cnc(C[S+]([O-])c2nc3cc4c(cc3[nH]2)OCO4)c1C (stereo not drawn) [F, 6-[[(4-methoxy-3,5-dimethyl-2-pyridyl)methyl]sulfinyl]-5H-1,3-dioxolo[4,5-f]benzimidazole] | 6 mg/kg | > 5000 mg/kg | 1.4 mg/kg
7 | CON=C1C(C)(C)c2cc3nc([S+]([O-])Cc4nccc(OC)c4C)[nH]c3cc2C1(C)C (stereo not drawn) [H, 5,7-dihydro-2-[[(4-methoxy-3-methyl-2-pyridyl)methyl]sulfinyl]-5,5,7,7-tetramethylindeno[5,6-d]imidazol-6(lH)-one 0-methyl oxime] | 5 mg/kg | 1250 to 2500 mg/kg | 7.78 mg/kg
8 | CON=C1C(C)(C)c2cc3nc(SCc4nccc(OC)c4C)[nH]c3cc2C1(C)C [I, 5,7-dihydro-2-[[(4-methoxy-3-methyl-2-pyridyl)methyl]thio]-5,5,7,7-tetramethylindeno[5,6-d]imidazol-6(lH)-one 0-methyl oxime] | 4 mg/kg | 1250 to 2500 mg/kg | 2.25 mg/kg
